The supplement of paper PMC10307832

Columns and labels:
Assay in all cases: relative viability (nuclei count vs DMSO), 5 days (fraction); higher = more cells survive
[1] = compound: CC(=O)O[C@@]12CO[C@@H]1C[C@H](O)[C@@]1(C)C(=O)[C@H](O)C3=C(C)[C@@H](OC(=O)[C@H](O)[C@@H](NC(=O)OC(C)(C)C)c4ccccc4)C[C@@](O)([C@@H](OC(=O)c4ccccc4)[C@H]21)C3(C)C [Docetaxel]
Method in brief: (§1)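 For viability, nuclei in each treated well were divided by nuclei in vehicle wells and the median across plates was taken. Lung cancer cell lines in 1536-well plates were pinned with five library-drug doses (not always all listed) spaced by √10, cultured 5 days without medium change, and imaged at 4× after Hoechst staining, with plates passing only at control CV below 25% and at least one doubling.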

[2] = compound: COc1cc2nccc(Oc3ccc(NC(=O)Nc4cc(C)on4)c(Cl)c3)c2cc1OC [Tivozanib]
Method in brief: as §1

[3] = compound: Cc1cnc(-c2cnc(NCCNc3ccc(C#N)cn3)nc2-c2ccc(Cl)cc2Cl)[nH]1
Method in brief: as §1

[4] = compound: Cc1sc2c(c1C)C(c1ccc(Cl)cc1)=N[C@@H](CC(=O)OC(C)(C)C)c1nnc(C)n1-2 [JQ1]
Method in brief: as §1

[5] = compound: Nc1ccn([C@@H]2O[C@H](CO)[C@@H](O)[C@@H]2O)c(=O)n1 [Cytarabine]
Method in brief: as §1

[6] = compound: O=C(O)CCCCC(CCSCc1ccccc1)SCc1ccccc1 [CPI-613]
Method in brief: as §1

[7] = compound: O=c1[nH]c2ccccc2n1C1CCN(CCCC(c2ccc(F)cc2)c2ccc(F)cc2)CC1 [Pimozide]
Method in brief: as §1

Row | Cell Line | relative viability ([1]; 0.0002 µM) | relative viability ([1]; 0.000632 µM) | relative viability ([1]; 0.002 µM) | relative viability ([1]; 0.006325 µM) | relative viability ([1]; 0.02 µM) | relative viability ([2]; 0.005 µM) | relative viability ([2]; 0.01581 µM) | relative viability ([2]; 0.05 µM) | relative viability ([2]; 0.5 µM) | relative viability ([3]; 0.08 µM) | relative viability ([3]; 0.253 µM) | relative viability ([3]; 0.8 µM) | relative viability ([3]; 2.53 µM) | relative viability ([4]; 0.04 µM) | relative viability ([4]; 0.1265 µM) | relative viability ([4]; 0.4 µM) | relative viability ([4]; 1.265 µM) | relative viability ([4]; 4 µM) | relative viability ([5]; 0.005 µM) | relative viability ([5]; 0.01581 µM) | relative viability ([5]; 0.05 µM) | relative viability ([5]; 0.1581 µM) | relative viability ([5]; 0.5 µM) | relative viability ([6]; 5 µM) | relative viability ([6]; 15.81 µM) | relative viability ([6]; 50 µM) | relative viability ([6]; 158.11 µM) | relative viability ([6]; 500 µM) | relative viability ([7]; 0.08 µM) | relative viability ([7]; 0.253 µM) | relative viability ([7]; 0.8 µM) | relative viability ([7]; 2.53 µM) | relative viability ([7]; 8 µM) | relative viability ([2]; 0.1581 µM)
1 | NCI-H2170 | 1.01 | 0.999 | 0.828 | 0.271 | 0.201 | 0.928 | 0.923 | 0.956 | 1.02 | 1.1 | 0.655 | 0.989 | 0.958 | 1 | 0.778 | 0.908 | 0.711 | 0.503 | 0.822 | 0.741 | 0.688 | 0.463 | 0.402 | 0.939 | 0.903 | 0.998 | 0.802 | 0.301 | 1.05 | 0.94 | 0.956 | 0.945 | 0.947 | –
2 | NCI-H1648 | 0.861 | 0.925 | 0.494 | 0.269 | 0.179 | 0.838 | 0.918 | 1 | 0.716 | 1.11 | 0.801 | 0.951 | 0.76 | 0.89 | 0.753 | 0.434 | 0.294 | 0.184 | 0.69 | 0.734 | 0.813 | 0.443 | 0.611 | 0.818 | 0.768 | 1.11 | 0.393 | 0.577 | 1.01 | 0.641 | 0.822 | 0.8 | 0.972 | 0.886
3 | LU99A | 0.997 | 0.83 | 0.478 | 0.395 | 0.203 | 0.987 | 0.849 | 0.942 | 0.952 | 1.06 | 0.939 | 1.04 | 0.963 | 0.847 | 0.667 | 0.82 | 0.542 | 0.32 | 1.06 | 0.825 | 0.905 | 0.886 | 0.929 | 0.896 | 0.886 | 0.832 | 0.756 | 0.279 | 0.907 | 0.938 | 0.858 | 0.893 | 1 | 0.751
4 | COR-L 105 | 0.86 | 0.811 | 0.536 | 0.418 | 0.302 | 0.901 | 0.914 | 0.93 | 0.859 | 0.991 | 0.887 | 0.868 | 0.563 | 0.684 | 0.607 | 0.38 | 0.352 | 0.33 | 0.905 | 0.81 | 0.627 | 0.448 | 0.386 | 0.853 | 0.872 | 0.839 | 0.364 | 0.29 | – | 1.1 | 0.907 | 0.862 | 0.838 | 0.843
5 | NCI-H460 | 0.949 | 0.806 | 0.288 | 0.0373 | 0.0295 | 0.985 | 1.06 | 0.989 | 0.965 | 1 | 0.911 | 0.981 | 0.883 | 0.97 | 0.617 | 0.593 | 0.353 | 0.197 | 0.962 | 0.894 | 0.256 | 0.0513 | 0.0345 | 0.973 | 0.97 | 1 | 0.66 | 0.515 | 1.01 | 0.95 | 0.964 | 0.913 | 0.922 | 1.03
